# Source: PubChem BioAssay AID1963968 (Molecular Pharmacology Branch, DTP, NCI, 2024)
# System: 945468-187-T-J3-PDC spheroids with HUVEC/MSC, viability
# Assay: Anticancer human tumor 945468-187-T-J3-PDC patient-derived rectal carcinoma cell line growth inhibition [PI3K]
# Details: for IC50: curve of first compound; for viability, T/C: stronger effect = lower value
# Summary of the method: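 Stroma-containing spheroids: tumor line, pooled-donor HUVEC, hMSC. Treatments: targeted agents with PI3K inhibitors. Dosing: clinically relevant, half-log spacing, 10 microM ceiling without known Cmax. Read-out: cell viability.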
# [1] = second compound 0.00316 µM, first compound 0.0316 µM
# [2] = second compound 0.00316 µM, first compound 0.1 µM
# [3] = second compound 0.00316 µM, first compound 0.316 µM
# [4] = second compound 0.00316 µM, first compound 1 µM
# [5] = second compound 0.00316 µM, first compound 3.16 µM
# [6] = second compound 0.00316 µM, first compound 10 µM
# [7] = second compound 0.01 µM, first compound 0.0316 µM
# [8] = second compound 0.01 µM, first compound 0.1 µM
# [9] = second compound 0.01 µM, first compound 0.316 µM
# [10] = second compound 0.01 µM, first compound 1 µM
# [11] = second compound 0.01 µM, first compound 3.16 µM
# [12] = second compound 0.01 µM, first compound 10 µM
# [13] = second compound 0.0316 µM, first compound 0.0316 µM
# [14] = second compound 0.0316 µM, first compound 0.1 µM
# [15] = second compound 0.0316 µM, first compound 0.316 µM
# [16] = second compound 0.0316 µM, first compound 1 µM
# [17] = second compound 0.0316 µM, first compound 3.16 µM
# [18] = second compound 0.0316 µM, first compound 10 µM
# [19] = second compound 0.1 µM, first compound 0.0316 µM
# [20] = second compound 0.1 µM, first compound 0.1 µM
# [21] = second compound 0.1 µM, first compound 0.316 µM
# [22] = second compound 0.1 µM, first compound 1 µM
# [23] = second compound 0.1 µM, first compound 3.16 µM
# [24] = second compound 0.1 µM, first compound 10 µM
# [25] = second compound 0.316 µM, first compound 0.0316 µM
# [26] = second compound 0.316 µM, first compound 0.1 µM
# [27] = second compound 0.316 µM, first compound 0.316 µM
# [28] = second compound 0.316 µM, first compound 1 µM
# [29] = second compound 0.316 µM, first compound 3.16 µM
# [30] = second compound 0.316 µM, first compound 10 µM
# [31] = second compound 1 µM, first compound 0.0316 µM
# [32] = second compound 1 µM, first compound 0.1 µM
# [33] = second compound 1 µM, first compound 0.316 µM
# [34] = second compound 1 µM, first compound 1 µM
# [35] = second compound 1 µM, first compound 3.16 µM
# [36] = second compound 1 µM, first compound 10 µM
# 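Further: spheroids exposed to agents for 7 days before viability read.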
# 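Wherever viability, T/C is given: 100% = DMSO vehicle control viability.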
smiles,measurement,setting,value
C#Cc1c(F)ccc2cc(O)cc(-c3ncc4c(N5CC6CCC(C5)N6)nc(OCC56CCCN5CC(F)C6)nc4c3F)c12 (stereo not drawn) + COc1c(OCCCN2CCOCC2)ccc2c3n(c(=NC(=O)c4cnc(N)nc4)nc12)CCN3,IC50,second compound 0.00316 µM,> 10 µM
same,IC50,second compound 0.01 µM,> 10 µM
same,IC50,second compound 0.0316 µM,> 10 µM
same,IC50,second compound 0.1 µM,< 0.0316 µM
same,IC50,second compound 0.316 µM,< 0.0316 µM
same,IC50,second compound 1 µM,< 0.0316 µM
same,"viability, T/C",[1],102%
same,"viability, T/C",[2],95.9%
same,"viability, T/C",[3],98.6%
same,"viability, T/C",[4],94.2%
same,"viability, T/C",[5],108%
same,"viability, T/C",[6],117%
same,"viability, T/C",[7],98.1%
same,"viability, T/C",[8],97.2%
same,"viability, T/C",[9],96.6%
same,"viability, T/C",[10],89%
same,"viability, T/C",[11],104%
same,"viability, T/C",[12],98%
same,"viability, T/C",[13],79.6%
same,"viability, T/C",[14],88.2%
same,"viability, T/C",[15],91.3%
same,"viability, T/C",[16],87.2%
same,"viability, T/C",[17],69.9%
same,"viability, T/C",[18],57.6%
same,"viability, T/C",[19],37.4%
same,"viability, T/C",[20],42.2%
same,"viability, T/C",[21],46.3%
same,"viability, T/C",[22],39%
same,"viability, T/C",[23],34.7%
same,"viability, T/C",[24],18.5%
same,"viability, T/C",[25],22.8%
same,"viability, T/C",[26],22.4%
same,"viability, T/C",[27],21.6%
same,"viability, T/C",[28],13.1%
same,"viability, T/C",[29],17.2%
same,"viability, T/C",[30],5.33%
same,"viability, T/C",[31],16.2%
same,"viability, T/C",[32],14.6%
same,"viability, T/C",[33],14.8%
same,"viability, T/C",[34],9.87%
same,"viability, T/C",[35],6.91%
same,"viability, T/C",[36],3.67%
CC1(C)CCC(Nc2ncc(C(F)(F)F)c(-c3c[nH]c4c(P(C)(C)=O)c(C#N)ccc34)n2)CN1 (stereo not drawn) + COc1c(OCCCN2CCOCC2)ccc2c3n(c(=NC(=O)c4cnc(N)nc4)nc12)CCN3,IC50,second compound 0.00316 µM,3.35 µM
same,IC50,second compound 0.01 µM,0.0316 µM
same,IC50,second compound 0.0316 µM,1.25 µM
same,IC50,second compound 0.1 µM,< 0.0316 µM
same,IC50,second compound 0.316 µM,< 0.0316 µM
same,IC50,second compound 1 µM,< 0.0316 µM
same,"viability, T/C",[1],55.6%
same,"viability, T/C",[2],40.7%
same,"viability, T/C",[3],39%
same,"viability, T/C",[4],49.6%
same,"viability, T/C",[5],78.7%
same,"viability, T/C",[6],6.58%
same,"viability, T/C",[7],45.7%
same,"viability, T/C",[8],48.1%
same,"viability, T/C",[9],41.9%
same,"viability, T/C",[10],56%
same,"viability, T/C",[11],55.7%
same,"viability, T/C",[12],5.22%
same,"viability, T/C",[13],56.8%
same,"viability, T/C",[14],47.4%
same,"viability, T/C",[15],52%
same,"viability, T/C",[16],48.1%
same,"viability, T/C",[17],46.9%
same,"viability, T/C",[18],5.62%
same,"viability, T/C",[19],40.4%
same,"viability, T/C",[20],39.2%
same,"viability, T/C",[21],34.3%
same,"viability, T/C",[22],35.4%
same,"viability, T/C",[23],40.3%
same,"viability, T/C",[24],2.67%
same,"viability, T/C",[25],27.9%
same,"viability, T/C",[26],26.6%
same,"viability, T/C",[27],23.2%
same,"viability, T/C",[28],20.5%
same,"viability, T/C",[29],20.8%
same,"viability, T/C",[30],5.77%
same,"viability, T/C",[31],15.7%
same,"viability, T/C",[32],17.2%
same,"viability, T/C",[33],17.5%
same,"viability, T/C",[34],14.6%
same,"viability, T/C",[35],11.4%
same,"viability, T/C",[36],0.98%
CNC(=O)c1ccc(N2C(=S)N(c3ccc(C#N)c(C(F)(F)F)c3)C(=O)C2(C)C)cc1F + Cc1nc(NC(=O)N2CCCC2C(N)=O)sc1-c1ccnc(C(C)(C)C(F)(F)F)c1,IC50,second compound 0.0316 µM,> 10 µM
same,IC50,second compound 0.1 µM,> 10 µM
same,IC50,second compound 0.316 µM,> 10 µM
same,IC50,second compound 1 µM,> 10 µM
same,IC50,second compound 3.16 µM,> 10 µM
same,IC50,second compound 10 µM,> 10 µM
same,"viability, T/C",[13],102%
same,"viability, T/C",[14],108%
same,"viability, T/C",[15],96.1%
same,"viability, T/C",[16],115%
same,"viability, T/C",[17],107%
same,"viability, T/C",[18],104%
same,"viability, T/C",[19],108%
same,"viability, T/C",[20],106%
same,"viability, T/C",[21],99.7%
same,"viability, T/C",[22],105%
same,"viability, T/C",[23],116%
same,"viability, T/C",[24],94.8%
same,"viability, T/C",[25],125%
same,"viability, T/C",[26],108%
same,"viability, T/C",[27],97%
same,"viability, T/C",[28],105%
same,"viability, T/C",[29],116%
same,"viability, T/C",[30],108%
same,"viability, T/C",[31],120%
same,"viability, T/C",[32],115%
same,"viability, T/C",[33],97.6%
same,"viability, T/C",[34],118%
same,"viability, T/C",[35],105%
same,"viability, T/C",[36],108%
same,"viability, T/C","second compound 3.16 µM, first compound 0.0316 µM",123%
same,"viability, T/C","second compound 3.16 µM, first compound 0.1 µM",110%
same,"viability, T/C","second compound 3.16 µM, first compound 0.316 µM",101%
same,"viability, T/C","second compound 3.16 µM, first compound 1 µM",112%
same,"viability, T/C","second compound 3.16 µM, first compound 3.16 µM",108%
same,"viability, T/C","second compound 3.16 µM, first compound 10 µM",121%
same,"viability, T/C","second compound 10 µM, first compound 0.0316 µM",61.1%
same,"viability, T/C","second compound 10 µM, first compound 0.1 µM",68.6%
same,"viability, T/C","second compound 10 µM, first compound 0.316 µM",59.5%
same,"viability, T/C","second compound 10 µM, first compound 1 µM",61.2%
same,"viability, T/C","second compound 10 µM, first compound 3.16 µM",67.9%
same,"viability, T/C","second compound 10 µM, first compound 10 µM",88.5%
Cn1cnc2c(F)c(Nc3ccc(Br)cc3Cl)c(C(=O)NOCCO)cc21 + Cc1nc(NC(=O)N2CCCC2C(N)=O)sc1-c1ccnc(C(C)(C)C(F)(F)F)c1,IC50,second compound 0.0316 µM,> 3 µM
same,IC50,second compound 0.1 µM,> 3 µM
same,IC50,second compound 0.316 µM,> 3 µM
same,IC50,second compound 1 µM,1.18 µM
same,IC50,second compound 3.16 µM,0.286 µM
same,IC50,second compound 10 µM,0.0209 µM
same,"viability, T/C","second compound 0.0316 µM, first compound 0.00949 µM",111%
same,"viability, T/C","second compound 0.0316 µM, first compound 0.03 µM",124%
same,"viability, T/C","second compound 0.0316 µM, first compound 0.0949 µM",129%
same,"viability, T/C","second compound 0.0316 µM, first compound 0.3 µM",120%
same,"viability, T/C","second compound 0.0316 µM, first compound 0.949 µM",123%
same,"viability, T/C","second compound 0.0316 µM, first compound 3 µM",107%
same,"viability, T/C","second compound 0.1 µM, first compound 0.00949 µM",113%
same,"viability, T/C","second compound 0.1 µM, first compound 0.03 µM",109%
same,"viability, T/C","second compound 0.1 µM, first compound 0.0949 µM",114%
same,"viability, T/C","second compound 0.1 µM, first compound 0.3 µM",122%
same,"viability, T/C","second compound 0.1 µM, first compound 0.949 µM",114%
same,"viability, T/C","second compound 0.1 µM, first compound 3 µM",90.4%
same,"viability, T/C","second compound 0.316 µM, first compound 0.00949 µM",114%
same,"viability, T/C","second compound 0.316 µM, first compound 0.03 µM",123%
same,"viability, T/C","second compound 0.316 µM, first compound 0.0949 µM",116%
same,"viability, T/C","second compound 0.316 µM, first compound 0.3 µM",123%
same,"viability, T/C","second compound 0.316 µM, first compound 0.949 µM",94.1%
same,"viability, T/C","second compound 0.316 µM, first compound 3 µM",60.4%
same,"viability, T/C","second compound 1 µM, first compound 0.00949 µM",117%
same,"viability, T/C","second compound 1 µM, first compound 0.03 µM",125%
same,"viability, T/C","second compound 1 µM, first compound 0.0949 µM",100%
same,"viability, T/C","second compound 1 µM, first compound 0.3 µM",101%
same,"viability, T/C","second compound 1 µM, first compound 0.949 µM",51.8%
same,"viability, T/C","second compound 1 µM, first compound 3 µM",34.2%
same,"viability, T/C","second compound 3.16 µM, first compound 0.00949 µM",105%
same,"viability, T/C","second compound 3.16 µM, first compound 0.03 µM",87%
same,"viability, T/C","second compound 3.16 µM, first compound 0.0949 µM",61.6%
same,"viability, T/C","second compound 3.16 µM, first compound 0.3 µM",55.7%
same,"viability, T/C","second compound 3.16 µM, first compound 0.949 µM",30%
same,"viability, T/C","second compound 3.16 µM, first compound 3 µM",20.2%
same,"viability, T/C","second compound 10 µM, first compound 0.00949 µM",56.9%
same,"viability, T/C","second compound 10 µM, first compound 0.03 µM",46.5%
same,"viability, T/C","second compound 10 µM, first compound 0.0949 µM",34.3%
same,"viability, T/C","second compound 10 µM, first compound 0.3 µM",20.6%
same,"viability, T/C","second compound 10 µM, first compound 0.949 µM",10.7%
same,"viability, T/C","second compound 10 µM, first compound 3 µM",4.74%
